Experimental data as given in patent EP4737450A1 (Longwood Pharmaceuticals (Hangzhou) Co., Ltd, priority 2023, dated 2025).
Read-outs that look alike come from different tables or passages of the source.

Columns and labels:
FXIa = FXIa (Homo sapiens, UniProt P03951); experiment: Inhibitory activity against FXIa in vitro (biochemical assay)
Experimental: Test Example 1. Test of the inhibitory activities of the compounds of the present invention against plasma kallikrein (PKa), KLK1 and FXIa in vitro.
PKK (R & D, Cat # 2497-SE) and Pro-Phe-Arg-AMC (Nanjing Peptide, Cat # NJP23946) solutions were prepared in reaction buffer (50 mM Tris-HCl, pH 7.5, 250 mM NaCl). The final concentrations of enzyme protein and Pro-Phe-Arg-AMC in the reaction mixture were 10 nM and 60 µM, respectively. The starting concentration of the positive reference substance Avoralstat was 100 nM, 3-fold dilution, 10 + 0 dose. 0.05 µL of compound in 100% DMSO was delivered to a 384-well plate by an acoustic liquid delivery technique (Echo665; nanoliter range). Compound duplex test. 5 µL of 2 × enzyme solution was transferred to a 384 reaction plate and centrifuged at 1000 rpm for 1 minute, incubated at 25°C for 15 minutes; 5 µL of 2 × Pro-Phe-Arg-AMC solution was transferred to a 384 reaction plate, centrifuged at 1000 rpm for 1 minute, incubated at 25°C for 3 hours. […] IC50 values and nonlinear regression curve fitting were obtained using GraphPad Prism software.

plasma kallikrein (PKa) = molecular target: T1, plasma kallikrein (PKa) (Homo sapiens, UniProt P03952); experiment: Inhibitory activity against plasma kallikrein in vitro (fluorescence intensity enzyme assay, Pro-Phe-Arg-AMC substrate); assay type: biochemical; conditions: Pro-Phe-Arg-AMC substrate
T1 construct: purchased R & D 2497-SE
In short: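 Fluorescence intensity enzyme assay with 10 nM enzyme and 60 µM Pro-Phe-Arg-AMC (final concentrations). Compounds in DMSO, tested in duplicate over a dose series. IC50 from nonlinear regression curve fitting.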

KLK1 = KLK1 (Homo sapiens, UniProt P06870); experiment: Inhibitory activity against KLK1 in vitro (biochemical assay)
From the text: Test Example 1. Test of the inhibitory activities of the compounds of the present invention against plasma kallikrein (PKa), KLK1 and FXIa in vitro. […]

[1] = plasma kallikrein enzyme assay, read-out: PKa IC50

T1 sequence (P03952 391-638 limits assumed): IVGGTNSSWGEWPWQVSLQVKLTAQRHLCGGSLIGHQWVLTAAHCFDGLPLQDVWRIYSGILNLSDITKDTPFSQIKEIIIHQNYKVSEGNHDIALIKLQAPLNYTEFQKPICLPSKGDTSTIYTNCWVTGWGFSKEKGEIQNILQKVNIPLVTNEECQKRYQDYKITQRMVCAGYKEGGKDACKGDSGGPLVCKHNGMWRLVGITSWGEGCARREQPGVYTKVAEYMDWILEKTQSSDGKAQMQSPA
T1 sequence (P03952 20-390 partner limits assumed): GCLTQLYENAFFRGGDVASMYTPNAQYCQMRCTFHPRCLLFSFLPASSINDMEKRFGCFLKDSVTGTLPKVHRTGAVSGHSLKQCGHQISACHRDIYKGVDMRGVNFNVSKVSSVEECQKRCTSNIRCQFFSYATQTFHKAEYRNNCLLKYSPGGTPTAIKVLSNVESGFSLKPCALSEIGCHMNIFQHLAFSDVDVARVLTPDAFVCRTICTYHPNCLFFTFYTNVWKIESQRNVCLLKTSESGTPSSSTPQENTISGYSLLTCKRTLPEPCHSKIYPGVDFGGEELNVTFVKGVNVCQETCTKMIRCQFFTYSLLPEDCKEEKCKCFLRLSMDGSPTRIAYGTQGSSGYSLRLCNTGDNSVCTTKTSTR
Sequence of KLK1 (P06870 25-262, species assumed): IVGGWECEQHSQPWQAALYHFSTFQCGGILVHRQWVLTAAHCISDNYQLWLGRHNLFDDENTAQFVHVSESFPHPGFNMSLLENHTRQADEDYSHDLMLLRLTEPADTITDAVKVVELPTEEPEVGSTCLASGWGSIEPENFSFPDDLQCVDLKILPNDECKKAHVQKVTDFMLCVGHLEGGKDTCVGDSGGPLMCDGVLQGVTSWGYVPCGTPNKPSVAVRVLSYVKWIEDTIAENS
Sequence of FXIa (P03951 388-625 limits assumed): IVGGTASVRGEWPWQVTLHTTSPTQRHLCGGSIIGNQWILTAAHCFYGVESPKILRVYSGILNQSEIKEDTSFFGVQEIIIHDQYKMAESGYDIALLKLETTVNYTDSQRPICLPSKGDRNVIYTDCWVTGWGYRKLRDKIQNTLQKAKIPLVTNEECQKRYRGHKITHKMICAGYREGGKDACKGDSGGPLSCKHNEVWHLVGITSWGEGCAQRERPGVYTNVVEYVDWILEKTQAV
Sequence of FXIa (P03951 19-387 partner limits assumed): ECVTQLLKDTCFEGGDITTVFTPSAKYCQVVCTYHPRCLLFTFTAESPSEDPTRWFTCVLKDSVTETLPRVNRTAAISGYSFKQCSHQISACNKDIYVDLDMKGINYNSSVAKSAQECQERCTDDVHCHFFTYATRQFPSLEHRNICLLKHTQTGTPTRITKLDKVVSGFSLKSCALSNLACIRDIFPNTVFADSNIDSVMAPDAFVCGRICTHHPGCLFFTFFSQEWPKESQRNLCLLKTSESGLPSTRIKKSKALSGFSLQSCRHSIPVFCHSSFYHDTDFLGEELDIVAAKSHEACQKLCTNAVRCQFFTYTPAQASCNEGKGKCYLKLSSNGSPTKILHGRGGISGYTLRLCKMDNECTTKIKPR

| IC50 (FXIa; values given in µM) [µM] | IC50 (plasma kallikrein (PKa); [1]) [nM] | IC50 (KLK1; values given in µM) [µM] | IC50 (FXIa; values in nM) [µM] | IC50 (KLK1; values in nM) [µM] | SMILES | IC50 (plasma kallikrein (PKa); PKa IC50, plasma kallikrein enzyme assay) [nM] |
| --- | --- | --- | --- | --- | --- | --- |
| > 10 | 0.46 | > 10 |  |  | N#Cc1cc(N2CC3C(C2)C3(F)F)ccc1Cn1cnc(C(=O)NC2CCc3cc(N)ncc32)n1 (single isomer, unassigned) [Compound 54] |  |
|  | 9.27 |  | < 0.5 | < 0.5 | Cc1cc(N)nc(C)c1CNC(=O)c1ccc(Cc2ccc3ncc(Cl)cc3c2)s1 [Compound 3, N-((6-amino-2,4-dimethylpyridin-3-yl)methyl)-5-((3-chloroquinolin-6-yl)methyl)thiophene-2-carboxamide] |  |
|  | 0.6 |  | < 0.5 | < 0.5 | COCc1nn(Cc2ccc3ncc(Cl)cc3c2)cc1C(=O)NCc1c(C)cc(N)nc1C [Compound 5, N-((6-amino-2,4-dimethylpyridin-3-yl)methyl)-1-((3-chloroquinolin-6-yl)methyl)-3-(methoxymethyl)-1H-pyrazole-4-carboxamide] |  |
|  | 0.032 |  | < 0.5 | < 0.5 | Cc1cc(N)nc(C)c1CNC(=O)c1cn(Cc2cn3cc(C4CC4)ccc3n2)nn1 [Compound 6, N-((6-amino-2,4-dimethylpyridin-3-yl)methyl)-1-(6-cyclopropylimidazo[1,2-a]pyridin-2-yl)methyl-1H-1,2,3-triazole-4-carboxamide] |  |
|  | 1.22 |  | < 0.5 | < 0.5 | N#Cc1cc(N2CC3C(C2)C3(F)F)ccc1Cn1cc(C(=O)NCc2ccc(C(=N)N)cc2)cn1 (stereo not drawn) [Compound 8] |  |
|  | 0.406 |  | < 0.5 | < 0.5 | Cc1cc(N)nc(C)c1CNC(=O)c1cn(Cc2ccc3ncc(Cl)cc3c2)nn1 [Compound 9, N-((6-amino-2,4-dimethylpyridin-3-yl)methyl)-1-(3-chloroquinolin-6-yl)methyl-1H-1,2,3-triazole-4-carboxamide] |  |
| > 10 | 0.132 | > 10 |  |  | Cc1cc(N)nc(C)c1CNC(=O)c1cnn(Cc2ccc3ncc(Cl)cc3c2)c1 [Compound 10, N-((6-amino-2,4-dimethylpyridin-3-yl)methyl)-1-((3-chloroquinolin-6-yl)methyl)-1H-pyrazole-4-carboxamide] |  |
| > 10 | 1.62 | > 10 |  |  | N=C(N)c1ccc(CNC(=O)c2cnn(Cc3ccc(Cn4ccccc4=O)cc3)c2)cc1 [Compound 12] |  |
| > 10 | 0.898 | > 10 |  |  | N=C(N)c1ccc(CNC(=O)c2cnn(Cc3cn4cc(C5CC5)ccc4n3)c2)cc1 [Compound 15] |  |
| > 10 | 1.24 | > 10 |  |  | CCc1cc(N2CC3C(C2)C3(F)F)ccc1Cn1cc(C(=O)NCc2ccc(C(=N)N)cc2)cn1 (stereo not drawn) [Compound 16] |  |
| > 10 | 0.63 | > 10 |  |  | Cc1cc(N)nc(C)c1CNC(=O)c1ncn(Cc2c(F)c(F)c(Cn3ccccc3=O)c(F)c2F)n1 [Compound 22] |  |
| > 10 | 0.175 | > 10 |  |  | COCc1nn(Cc2ccc(Cn3cc(F)ccc3=O)cc2)cc1C(=O)NCc1c(C)cc(N)nc1C [Compound 24] |  |
| > 10 | 1.48 | > 10 |  |  | Cc1nc(N)ccc1CNC(=O)c1ncn(Cc2ccc(Cn3ccccc3=O)cc2)n1 [Compound 27] |  |
| > 10 | 2.33 |  |  | > 0.5 | COCc1nn(Cc2c(F)c(F)c(Cn3ccccc3=O)c(F)c2F)cc1C(=O)NCc1c(C)cc(N)nc1C [Compound 28] |  |
| > 10 | 1.65 | > 10 |  |  | Cn1cnc2c1CC[C@H]2NC(=O)c1cn(Cc2cn3cc(C4CC4)ccc3n2)nn1 [Compound 35] |  |
| > 10 | 0.92 | > 10 |  |  | N#Cc1cc(N2CC3C(C2)C3(F)F)ccc1Cn1cnc(C(=O)NCc2ccc3c(N)nccc3c2)n1 (stereo not drawn) [Compound 43] |  |
| > 10 | 0.39 | > 10 |  |  | Cc1cc(N)nc(C)c1CNC(=O)c1nnc(Cc2ccc(Cn3ccccc3=O)cc2)[nH]1 [Compound 44] |  |
| > 10 | 0.18 | > 10 |  |  | Cc1cc(N)nc(C)c1CNC(=O)c1ncn(Cc2cn3cc(C4CC4)ccc3n2)n1 [Compound 47] |  |
| > 10 | 0.38 | > 10 |  |  | Cc1cc(N)nc(C)c1CNC(=O)c1noc(Cc2ccc(Cn3ccccc3=O)cc2)n1 [Compound 48] |  |
| > 10 | 2.78 | > 10 |  |  | COCc1nn(Cc2c(F)c(F)c(Cn3cc(F)ccc3=O)c(F)c2F)cc1C(=O)NCc1c(C)cc(N)nc1C [Compound 49] |  |

| IC50 (FXIa; values given in µM) [µM] | IC50 (plasma kallikrein (PKa); [1]) [nM] | IC50 (KLK1; values given in µM) [µM] | IC50 (FXIa; values in nM) [µM] | IC50 (KLK1; values in nM) [µM] | SMILES | IC50 (plasma kallikrein (PKa); PKa IC50, plasma kallikrein enzyme assay) [nM] |
| --- | --- | --- | --- | --- | --- | --- |
| > 10 | 0.89 | > 10 |  |  | Cc1cc(N)nc(C)c1CNC(=O)c1ncn(C(C)c2ccc(Cn3ccccc3=O)cc2)n1 (stereo not drawn) [Compound 50] |  |
| > 10 | 0.16 | > 10 |  |  | Cc1cc(N)nc(C)c1CNC(=O)c1nnn(Cc2ccc(Cn3ccccc3=O)cc2)n1 [Compound 55] |  |
| > 10 | 0.16 | > 10 |  |  | Cc1cc(N)nc(C)c1CNC(=O)c1ncn(Cc2ccc(Cn3cccc(C)c3=O)cc2)n1 [Compound 56] |  |
| > 10 | 0.65 | > 10 |  |  | COCc1cn(Cc2ccc(Cn3ccccc3=O)cc2)nc1C(=O)NCc1c(C)cc(N)nc1C [Compound 60] |  |
| > 10 | 0.12 | > 10 |  |  | Cc1cc(N)nc(C)c1CNC(=O)c1ccn(Cc2ccc(Cn3ccccc3=O)cc2)c1 [Compound 61] |  |
| > 10 | 0.12 | > 10 |  |  | Cc1cc(N)nc(C)c1CNC(=O)c1cc(Cc2ccc(Cn3ccccc3=O)cc2)cn1C [Compound 62] |  |
| > 10 | 2.99 | > 10 |  |  | Cc1cc(N)nc(C)c1CNC(=O)c1cn(Cc2ccc(CN3CCOCC3=O)cc2)nc1C(F)F [Compound 64] |  |
| > 10 | 0.29 | > 10 |  |  | Cc1cc(N)nc(C)c1CNC(=O)c1nsc(Cc2ccc(Cn3ccccc3=O)cc2)n1 [Compound 67] |  |
| > 10 | 0.32 | > 10 |  |  | Cc1cc(N)nc(C)c1CNC(=O)c1csc(Cc2ccc(Cn3ccccc3=O)cc2)n1 [Compound 68] |  |
| > 10 | 0.076 | > 10 |  |  | Cc1cc(N)nc(C)c1CNC(=O)c1cn(Cc2ccc(Cn3ccccc3=O)cc2)nc1C(F)F [Compound 69, N-((6-amino-2,4-dimethylpyridin-3-yl)methyl)-3-(difluoromethyl)-1-(4-(2-oxopyridin-1(2H)-yl)methylbenzyl)-1H-pyrazole-4-carboxamide] |  |
| > 10 | 1.87 | > 10 |  |  | COCc1nn(Cc2ccc(Cn3ccccc3=O)cc2)cc1C(=O)N[C@@H]1CCc2c1ncn2C [Compound 70] |  |
| > 10 | 0.19 | > 10 |  |  | COCc1nn(Cc2ccc(Cn3ccccc3=O)cc2)cc1C(=O)NCc1ccc2c(N)nccc2c1 [Compound 71] |  |
| > 10 | 3.07 | > 10 |  |  | Cc1cc(N)nc(C)c1CNC(=O)c1ncn(Cc2cc(Cn3ccccc3=O)cs2)n1 [Compound 73] |  |
| > 10 | 5.7 | > 10 |  |  | COCc1cn(Cc2ccc(CN3CCCCC3=O)cc2)nc1C(=O)NCc1c(C)cc(N)nc1C [Compound 74] |  |
| > 10 | 0.22 | > 10 |  |  | Cc1cc(N)nc(C)c1CNC(=O)c1ccn(Cc2ccc(Cn3cccc(C)c3=O)cc2)n1 [Compound 75] |  |
| > 10 | 0.096 | > 10 |  |  | Cc1cc(N)nc(C)c1CNC(=O)c1ncn(Cc2cc(Cl)c(Cn3ccccc3=O)cc2Cl)n1 [Compound 80] |  |
| > 10 |  | > 10 |  |  | N#Cc1cc(N2CCC(F)(F)CC2)ccc1Cn1cc(C(=O)NCc2ccc(C(=N)N)cc2)cn1 [Compound 158] |  |
| > 10 |  | > 10 |  |  | COc1ccnc(CNC(=O)c2cn(Cc3ccc(Cn4ccccc4=O)cc3)nc2-c2c(C)cnn2C)c1F [Compound 221, N-((3-fluoro-4-methoxypyridin-2-yl)methyl)-2',4'-dimethyl-1-(4-((2-oxopyridin-1(2H)yl)methyl)benzyl)-1H,2'H-[3,3'-bispyrazole]-4-carboxamide] |  |
| > 10 |  | > 10 |  |  | COCc1nn(Cc2ccc(Cn3ccccc3=O)cc2)cc1C(=O)NCc1nccc(OC)c1F [KVD900, reference compound] |  |

| SMILES | IC50 (FXIa; values given in µM) [µM] | IC50 (plasma kallikrein (PKa); [1]) [nM] | IC50 (KLK1; values given in µM) [µM] | IC50 (FXIa; values in nM) [µM] | IC50 (KLK1; values in nM) [µM] | IC50 (plasma kallikrein (PKa); PKa IC50, plasma kallikrein enzyme assay) [nM] |
| --- | --- | --- | --- | --- | --- | --- |
| Cc1cc(N)nc(C)c1CNC(=O)c1cnn(Cc2ccc(N3CC4C(C3)C4(F)F)cc2C#N)c1 (stereo not drawn) [Compound 7, N-((6-amino-2,4-dimethylpyridin-3-yl)methyl)-1-(2-cyano-4-(6,6-difluoro-3-azabicyclo[3.1.0]hexan-3-yl)benzyl)-1H-pyrazole-4-carboxamide] | > 10 | < 0.051 | > 10 |  |  |  |
| Cc1cc(N)nc(C)c1CNC(=O)c1cc(Cc2ccc(Cn3ccccc3=O)cc2)ccn1 [Compound 13] | > 10 |  | > 10 |  |  | 0.516 |
